In PubChem BioAssay AID2060888 (Molecular Pharmacology Branch, DTP, NCI, 2025):
Several values for one entry are separate records, joined by “and”; a condition that tells them apart may be missing. Equal entries are not always repeated.

Tested on: 695427-040-R-J1-PDC complex spheroid viability
Assay: Anticancer human tumor 695427-040-R-J1-PDC patient-derived colon adenocarcinoma cell line growth inhibition [RAS]
Details: for viability, T/C: stronger effect = lower value; active = viability on the fitted dose curve at most 10% of control; inactive = the rest
Excerpt: RAS pathway inhibitors in Combinations in Complex Spheroids
A high-throughput screen of multi-cell type tumor spheroids was designed to identify active combinations of RAS pathway inhibitors and targeted small molecules. Complex spheroids include a stromal component modeled by human endothelial cells (HUVEC) and fibroblasts modeled by human mesenchymal stem cells (MSCs). The concentration ranges selected for each drug and investigational agent were based upon clinically achievable concentrations if the clinical Cmax of the agent was known.
Compounds. The drugs and investigational agents: abemaciclib (NSC768073), cobimetinib (NSC768068), divarasib (GDC6063, NSC841802), docetaxel (NSC628503), GDC-1971 (RLY-1971, NSC841576), gemcitabine (NSC613327), inavolisib (NSC800729), ipatasertib (NSC767898), KB-0742 (NSC834161), MRTX-1133 (NSC836407), osimertinib (NSC779217), RMC-4630 (NSC839698), RMC-6236 (NSC851965), RMC-6291 (NSC852671), Ro-3306 (NSC812927), sapanisertib (NSC764658), SN-38 (NSC673596), staurosporine (NSC755774), SY5609 (NSC837396), and tovorafenib (DAY101, NSC766906), were obtained from the National Cancer Institute (NCI) Developmental Therapeutics Program Chemical Repository. The FDA-approved anticancer drug set is available from the NCI Developmental Therapeutics Program. […] The stock solutions were prepared in dimethyl sulfoxide (DMSO, Sigma-Aldrich, St. Louis, MO, cat. D2650) at 800-fold the tested concentration and stored at -70 degrees C prior to their use. All drugs and investigational agents were tested over a range starting from a high concentration at or near the clinical Cmax and decreasing in half-log increments. If the clinical Cmax for an agent had not been determined, the highest concentration tested was 10 microM.
Cell Culture. All cells were maintained in an incubator at 37 degrees C and 5% CO2 with 95% humidity. The PDC lines were cultured according to standard operating procedures established by the NCI PDMR. All PDCs were thawed and cultured in Matrigel-coated flasks prepared with a working solution of 1X Ham's F-12 nutrient mix, without supplementation (Invitrogen, Waltham, MA, cat. 11765054), 100 U/mL penicillin-streptomycin (Invitrogen, cat. 15140122), and 2.5% Matrigel (Corning Inc., Corning, NY, cat. 354248) for the first three passages. The 362531-283-R-J2-PDC and 782815-120-R-J1-PDC lines were cultured in 6C/Colon 1B media, which includes advanced DMEM/F-12 (Thermo Fisher Scientific, cat. 12634028), 10 mM HEPES (Thermo Fisher Scientific, cat. 15630080), 1X GlutaMAX supplement (Thermo Fisher Scientific, cat. 35050061), 0.1 mg/mL primocin (InvivoGen, San Diego, CA, cat. ant-pm-2), 10% defined fetal bovine serum, heat inactivated (HyClone Laboratories Inc., Logan, UT, cat. SH30070.03HI), 50% L-WRN conditioned media (ATCC, cat. CRL-3276), 1.25 mM N-Acetyl-L-cysteine (Sigma-Aldrich, cat. A9165), 10 mM nicotinamide (Sigma-Aldrich, cat. N0636), 1X B-27 supplement (Thermo Fisher Scientific, cat. 17504044), 1X N-2 supplement (Thermo Fisher Scientific, cat. 17502048), 50 ng/mL human EGF (Thermo Fisher Scientific, cat. PHG0311), and 10 microM Y-27632 dihydrochloride (Tocris Bioscience, cat. 1254). The K12877-001-R-J1-PDC line was cultured in 6I media, which includes all 6C/Colon 1B media plus 10 ng/mL human FGF-10 (PeproTech, cat. 100-26), 1 ng/mL human FGF-2 (PeproTech, cat. 100-18B), 1 µM prostaglandin E2 (Tocris Bioscience, cat. 2296), […] hydrocortisone (Sigma-Aldrich, cat. H4001), and […] bovine insulin (Sigma-Aldrich, cat. I6634). The K86415-001-R-J1-PDC line was cultured in 6D media, which includes all 6C/Colon 1B media components minus the L-WRN conditioned media. The 485176-168-R4-J1-PDC was cultured in PANC media, which includes all 6C/Colon 1B media plus 100 ng/mL human FGF-10 (PeproTech, cat. 100-26), 500 nM SB-431542 (Selleckchem, cat. S1067), and 10 nM gastrin (Tocris Bioscience, cat. 3006). […]

[1] = curve of first compound, second compound 0.0316 µM
[2] = curve of first compound, second compound 0.1 µM
[3] = curve of first compound, second compound 0.316 µM
[4] = curve of first compound, second compound 1 µM
[5] = curve of first compound, second compound 3.16 µM
[6] = curve of first compound, second compound 10 µM
[7] = second compound 0.0316 µM, first compound 0.0316 µM
[8] = second compound 0.0316 µM, first compound 0.1 µM
[9] = second compound 0.0316 µM, first compound 0.316 µM
[10] = second compound 0.0316 µM, first compound 1 µM
[11] = second compound 0.0316 µM, first compound 3.16 µM
[12] = second compound 0.0316 µM, first compound 10 µM
[13] = second compound 0.1 µM, first compound 0.0316 µM
[14] = second compound 0.1 µM, first compound 0.1 µM
[15] = second compound 0.1 µM, first compound 0.316 µM
[16] = second compound 0.1 µM, first compound 1 µM
[17] = second compound 0.1 µM, first compound 3.16 µM
[18] = second compound 0.1 µM, first compound 10 µM
[19] = second compound 0.316 µM, first compound 0.0316 µM
[20] = second compound 0.316 µM, first compound 0.1 µM
[21] = second compound 0.316 µM, first compound 0.316 µM
[22] = second compound 0.316 µM, first compound 1 µM
[23] = second compound 0.316 µM, first compound 3.16 µM
[24] = second compound 0.316 µM, first compound 10 µM
[25] = second compound 1 µM, first compound 0.0316 µM
[26] = second compound 1 µM, first compound 0.1 µM
[27] = second compound 1 µM, first compound 0.316 µM
[28] = second compound 1 µM, first compound 1 µM
[29] = second compound 1 µM, first compound 3.16 µM
[30] = second compound 1 µM, first compound 10 µM
[31] = second compound 3.16 µM, first compound 0.0316 µM
[32] = second compound 3.16 µM, first compound 0.1 µM
[33] = second compound 3.16 µM, first compound 0.316 µM
[34] = second compound 3.16 µM, first compound 1 µM
[35] = second compound 3.16 µM, first compound 3.16 µM
[36] = second compound 3.16 µM, first compound 10 µM
[37] = second compound 10 µM, first compound 0.0316 µM
[38] = second compound 10 µM, first compound 0.1 µM
[39] = second compound 10 µM, first compound 0.316 µM
[40] = second compound 10 µM, first compound 1 µM
[41] = second compound 10 µM, first compound 3.16 µM
[42] = second compound 10 µM, first compound 10 µM
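Also: viability read after seven days of drug exposure.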

CCn1c(-c2cc(N3CCN(C)CC3)cnc2C(C)OC)c2c3cc(ccc31)-c1csc(n1)CC(NC(=O)C1CC1C)C(=O)N1CCCC(N1)C(=O)OCC(C)(C)C2 (stereo unspecified)
inactive: viability, T/C (compound 0.003 µM) 92.1% [middle of 8 runs] | viability, T/C (compound 0.00949 µM) 78.3% [middle of 8 runs] | viability, T/C (compound 0.03 µM) 60.2% [middle of 8 runs] | viability, T/C (compound 0.0949 µM) 51.3% [middle of 8 runs] | viability, T/C (compound 0.3 µM) 43% [middle of 8 runs]

CC1(C)CCC(Nc2ncc(C(F)(F)F)c(-c3c[nH]c4c(P(C)(C)=O)c(C#N)ccc34)n2)CN1 (stereo unspecified)
> 300 nM: IC50 (curve of compound)
inactive: viability, T/C (compound 0.000949 µM) 95.8% [middle of 4 runs] | viability, T/C (compound 0.003 µM) 89.1% [middle of 4 runs] | viability, T/C (compound 0.00949 µM) 92.5% and 92.7% and 87.3% (2×) | viability, T/C (compound 0.03 µM) 87.3% [middle of 4 runs] | viability, T/C (compound 0.0949 µM) 87.8% [middle of 4 runs] | viability, T/C (compound 0.3 µM) 76.5% [middle of 4 runs]

NC1c2ccccc2OC12CCN(c1cnc3c(N4CCCc5ncccc54)n[nH]c3n1)CC2 (stereo unspecified) + C#Cc1c(F)ccc2cc(O)cc(-c3ncc4c(N5CC6CCC(C5)N6)nc(OCC56CCCN5CC(F)C6)nc4c3F)c12
< 31.6 nM: IC50 [5] | IC50 [6]
inactive: viability, T/C [7] 69.6% | viability, T/C [8] 65.6% | viability, T/C [9] 57.4% | viability, T/C [10] 50% | viability, T/C [11] 45.2% | viability, T/C [12] 33.6% | viability, T/C [13] 69% | viability, T/C [14] 61.8% | viability, T/C [15] 55.9% | viability, T/C [16] 45.1% | viability, T/C [17] 34.9% | viability, T/C [18] 23.5% | viability, T/C [19] 66.8% | viability, T/C [20] 52.1% | viability, T/C [21] 40.8% | viability, T/C [22] 31.9% | viability, T/C [23] 25.5% | viability, T/C [24] 12.8% | viability, T/C [25] 55.8% | viability, T/C [26] 40.9% | viability, T/C [27] 33.6% | viability, T/C [28] 25.7% | viability, T/C [29] 15.8% | viability, T/C [31] 39.6% | viability, T/C [32] 27.4% | viability, T/C [33] 23.4% | viability, T/C [34] 15.9% | viability, T/C [35] 12.2% | viability, T/C [37] 23.9% | viability, T/C [38] 18.9% | viability, T/C [39] 10.8%
active: viability, T/C [30] 8.19% | viability, T/C [36] 5.36% | viability, T/C [40] 7.6% | viability, T/C [41] 4.71% | viability, T/C [42] 1.43%
1180 nM: IC50 [1]
141 nM: IC50 [3]
583 nM: IC50 [2]
50.8 nM: IC50 [4]

CC(=O)OC12COC1CC(O)C1(C)C(=O)C(O)C3=C(C)C(OC(=O)C(O)C(NC(=O)OC(C)(C)C)c4ccccc4)CC(O)(C(OC(=O)c4ccccc4)C21)C3(C)C (stereo unspecified) + C#Cc1c(F)ccc2cc(O)cc(-c3ncc4c(N5CC6CCC(C5)N6)nc(OCC56CCCN5CC(F)C6)nc4c3F)c12
< 31.6 nM: IC50 [5] | IC50 [6]
> 10000 nM: IC50 [1] | IC50 [2] | IC50 [3] | IC50 [4]
inactive: viability, T/C [7] 67.3% | viability, T/C [8] 67% | viability, T/C [9] 69.9% | viability, T/C [10] 80.3% | viability, T/C [11] 85.8% | viability, T/C [12] 90.5% | viability, T/C [13] 66.9% | viability, T/C [14] 70.5% | viability, T/C [15] 66% | viability, T/C [16] 80% | viability, T/C [17] 89.1% | viability, T/C [18] 87.7% | viability, T/C [19] 70.7% | viability, T/C [20] 68% | viability, T/C [21] 64.8% | viability, T/C [22] 72.6% | viability, T/C [23] 76.8% | viability, T/C [24] 81.8% | viability, T/C [25] 59.5% | viability, T/C [26] 59.1% | viability, T/C [27] 59% | viability, T/C [28] 58.8% | viability, T/C [29] 67.3% | viability, T/C [30] 61% | viability, T/C [31] 47.6% | viability, T/C [32] 44.2% | viability, T/C [33] 42.4% | viability, T/C [34] 50.4% | viability, T/C [35] 49.7% | viability, T/C [36] 45.3% | viability, T/C [37] 32.3% | viability, T/C [38] 30.4% | viability, T/C [39] 25.2% | viability, T/C [40] 32% | viability, T/C [41] 29.6% | viability, T/C [42] 30.1%
